In paper PMC10291553, “Exploring Structure–Activity Relationships in Photodynamic Therapy Anticancer Agents Based on Ir(III)-COUPY Conjugates” (Journal of Medicinal Chemistry, 2023):
Several values for one entry are separate records, joined by “and”; a condition that tells them apart may be missing. Equal values may be shown once. Read-outs that look alike come from different tables or passages of the source.

Tests used:
A2780cis cells = assay: Photo- and cytotoxic activity determination (MTT), A2780cis cells, normoxia or hypoxia; type: cell-based; settings: for Partial inhibition (% of cell growth inhibition with respect to untreated controls), Hypoxia / Partial inhibition (% of cell growth inhibition with respect to untreated controls), Normoxia: 250 μM, 2 h incubation in the dark, 48 h drug-free recovery; for PI (phototherapeutic index), blue light: 465 nm; for Hypoxia PI (phototherapeutic index) / Normoxia PI (phototherapeutic index): dark tested up to 250 μM; for A2780cis PI (phototherapeutic index), IC50 dark/IC50 irradiated: dark tested up to 100 μM
From the text: (§1) Having shown that the Ir(III)-COUPY conjugates can sensitize both type I and II ROS through spectroscopic techniques and readily internalize into living cells, their photocytotoxicity was screened in various cancer cell lines. This screening included two representative melanoma cell lines (human A375 and […] human SK-MEL-28) and cancer cells with resistance to the clinical drug cisplatin. For the latter, both sensitive and cisplatin-resistant ovarian cancer cells (A2780 and A2780cis) as well as HeLa cells, which also show a degree of chemoresistance to the platinum anticancer drug in vitro,[54] were used. For the determination of dark and light cytotoxicity, dose–response curves were assayed from both conditions to provide the correspondent IC50 values, which correspond to the concentration needed for inhibition of cell growth by 50%. Phototherapeutic index (PI) was calculated as the ratio of dark to light IC50 value for each compound.
(§2) A375, HeLa, and SK-MEL-28 cells were cultured in Dulbecco’s modified Eagle medium (DMEM) supplemented with 10% FBS, L-glutamine, and 1% penicillin–streptomycin. A2780 and A2780cis cells were grown in RPMI-1640 cell medium supplemented with 10% fetal bovine serum (FBS) and 2 mM L-glutamine. Acquired resistance to cisplatin in the A2780cis cell line was maintained by adding cisplatin 1 μM to culture medium every second passage. Cells were cultured in a humidified incubator at 310 K with 5% CO2 atmosphere and subcultured two or three times a week with appropriate densities and were confirmed to be mycoplasma-free using a standard Hoechst DNA staining method.
A2780, A2780cis, HeLa, A375, and SK-MEL-28 cells were maintained at logarithmic growth-phase and cultured in 96-well plates at a density of 5000 cells/well in complete medium for 24 h at 310 K, 5% CO2 in a humidified incubator. For hypoxia experiments, a hypoxia condition was set up by Tissue Culture Service at University of Murcia using nitrogen (N2) to displace O2 down to a minimum of 2% in a Forma Steri-Cycle i160 incubator (Thermo Fisher Scientific). […] A light-based treatment schedule was performed as follows: 1 h incubation with the compounds in the dark, followed by 1 h incubation under irradiation conditions by placing the Photoreactor EXPO-LED from Luzchem (Canada) fitted with green lamps (final light intensity applied of 1.5 mW/cm^2 at λmax = 520 nm) inside the CO2 incubator. All the cell culture plates subjected to light irradiation included untreated controls to verify that cell viability was not affected by light. Then, treatment-containing media was removed, and fresh media was added for a 48 h cell recovery period; the temperature throughout the experiment remained at 310 K. Dark control samples were placed in the same dark conditions and then kept incubated for 1 h in the dark in the humidified CO2 incubator. Medium was then aspirated by suction, cells were loaded with 50 μL of MTT solution (1 mg/mL) for additional 4 h and then removed, and 50 μL of DMSO was added to solubilize the purple formazan crystals formed in active cells. The absorbance was measured at 570 nm using a microplate reader (FLUOstar Omega), and the IC50 values were calculated based on the inhibitory rate curves using the following equation [drawing 4] 4 where I represents the percentage inhibition of viability observed, Imax is the maximal inhibitory effect, IC50 is the concentration that inhibits 50% of maximal growth, C is the concentration of the treatment, and n is the slope of the semi-logarithmic dose–response sigmoidal curves. The non-linear fitting was performed using SigmaPlot 14.0 software. All experiments were performed in three independent studies with n = 3 replicates per concentration level. For a detailed phototoxicity procedure, ref ([43]) includes technical explanations.

A2780 = assay: Photo- and cytotoxic activity determination (MTT), A2780 cells; type: cell-based; settings: normoxia; for A2780 PI (phototherapeutic index), IC50 dark/IC50 irradiated: 520 nm, dark tested up to 100 μM; for IC50: 48 h drug-free medium
From the text: as §1, §2
(§3) A2780, A2780cis, HeLa, A375, and SK-MEL-28 cells were maintained at logarithmic growth-phase and cultured in 96-well plates at a density of 5000 cells/well in complete medium for 24 h at 310 K, 5% CO2 in a humidified incubator. For hypoxia experiments, a hypoxia condition was set up by Tissue Culture Service at University of Murcia using nitrogen (N2) to displace O2 down to a minimum of 2% in a Forma Steri-Cycle i160 incubator (Thermo Fisher Scientific). Serial dilutions of the compounds were added at the final concentrations in the range of 0–100 μM in a final volume of 100 μL per well. A light-based treatment schedule was performed as follows: 1 h incubation with the compounds in the dark, followed by 1 h incubation under irradiation conditions by placing the Photoreactor EXPO-LED from Luzchem (Canada) fitted with green lamps (final light intensity applied of 1.5 mW/cm^2 at λmax = 520 nm) inside the CO2 incubator. All the cell culture plates subjected to light irradiation included untreated controls to verify that cell viability was not affected by light. Then, treatment-containing media was removed, and fresh media was added for a 48 h cell recovery period; the temperature throughout the experiment remained at 310 K. Dark control samples were placed in the same dark conditions and then kept incubated for 1 h in the dark in the humidified CO2 incubator. Medium was then aspirated by suction, cells were loaded with 50 μL of MTT solution (1 mg/mL) for additional 4 h and then removed, and 50 μL of DMSO was added to solubilize the purple formazan crystals formed in active cells. The absorbance was measured at 570 nm using a microplate reader (FLUOstar Omega), and the IC50 values were calculated based on the inhibitory rate curves using the following equation [drawing 4] 4 where I represents the percentage inhibition of viability observed, Imax is the maximal inhibitory effect, IC50 is the concentration that inhibits 50% of maximal growth, C is the concentration of the treatment, and n is the slope of the semi-logarithmic dose–response sigmoidal curves. The non-linear fitting was performed using SigmaPlot 14.0 software. All experiments were performed in three independent studies with n = 3 replicates per concentration level. For a detailed phototoxicity procedure, ref ([43]) includes technical explanations.

HeLa = assay: Photo- and cytotoxic activity determination (MTT), HeLa cells; type: cell-based; settings: normoxia; for HeLa PI (phototherapeutic index), IC50 dark/IC50 irradiated: 520 nm, dark tested up to 100 μM; for IC50: 48 h drug-free medium
From the text: as §1, §2, §3

A375 = assay: Photo- and cytotoxic activity determination (MTT), A375 cells; type: cell-based, human; settings: normoxia; for A375 PI (phototherapeutic index), IC50 dark/IC50 irradiated: 520 nm, dark tested up to 100 μM; for IC50: 48 h drug-free medium
From the text: as §1, §2, §3

[1] = A2780cis, 1 h incubation + 1 h blue light 465 nm, 5 mW/cm2, 48 h drug-free, read-out: 465 nm IC50
[2] = A2780cis, hypoxia 2% O2, 520 nm
[3] = A2780cis, hypoxia 2% O2, dark, tested up to 250 μM, read-out: Hypoxia Dark IC50
[4] = A2780cis, normoxia 21% O2, 520 nm
[5] = A2780cis, normoxia 21% O2, dark, tested up to 250 μM, read-out: Normoxia Dark IC50
[6] = hypoxia, 520 nm, read-out: A2780cis Light 520 nm IC50 (microM) Hypoxia
[7] = hypoxia, dark, read-out: A2780cis Dark IC50 (microM) Hypoxia
[8] = normoxia, 1 h incubation + 1 h green light 520 nm, 1.5 mW cm^–2, 48 h drug-free medium, read-out: A2780cis light IC50
[9] = normoxia, dark, up to 250 microM, read-out: A2780cis Dark IC50 (microM) Normoxia
[10] = normoxia, kept in the dark, tested up to 100 μM, 2 h treatment, 48 h drug-free medium, read-out: A2780cis dark IC50
[11] = 1 h incubation + 1 h green light 520 nm, 1.5 mW cm^–2, read-out: A2780 light IC50
[12] = kept in the dark, 2 h treatment, read-out: A2780 dark IC50
[13] = 1 h incubation + 1 h green light 520 nm, 1.5 mW cm^–2, read-out: HeLa light IC50
[14] = kept in the dark, 2 h treatment, read-out: HeLa dark IC50
[15] = 1 h incubation + 1 h green light 520 nm, 1.5 mW cm^–2, read-out: A375 light IC50
[16] = kept in the dark, 2 h treatment, read-out: A375 dark IC50

SMILES	Partial inhibition (% of cell growth inhibition with respect to untreated controls), Hypoxia (A2780cis cells; A2780cis, hypoxia) [%]	Partial inhibition (% of cell growth inhibition with respect to untreated controls), Normoxia (A2780cis cells; A2780cis, normoxia) [%]	Hypoxia PI (phototherapeutic index) (A2780cis cells; [2])	IC50 (A2780cis cells; [3]) [µM]	Normoxia PI (phototherapeutic index) (A2780cis cells; [4])	IC50 (A2780cis cells; [5]) [µM]	IC50 (A2780cis cells; [7]) [µM]	A2780cis PI (phototherapeutic index), IC50 dark/IC50 irradiated (A2780cis cells; normoxia, 520 nm)	IC50 (A2780cis cells; [8]) [µM]	IC50 (A2780cis cells; [9]) [µM]	IC50 (A2780cis cells; [10]) [µM]	A2780 PI (phototherapeutic index), IC50 dark/IC50 irradiated (A2780)	IC50 (A2780; [11]) [µM]	IC50 (A2780; [12]) [µM]	HeLa PI (phototherapeutic index), IC50 dark/IC50 irradiated (HeLa)	IC50 (HeLa; [13]) [µM]	IC50 (HeLa; [14]) [µM]	A375 PI (phototherapeutic index), IC50 dark/IC50 irradiated (A375)	IC50 (A375; [15]) [µM]	IC50 (A375; [16]) [µM]	also measured
CCCCn1c2[n+](c3cc(C(=O)NCCCNC(=O)C[n+]4ccc(/C(C#N)=C5/C=C(C)c6ccc(N(CC)CC)cc6O5)cc4)ccc31)[Ir-3]13([c]4ccccc4-c4[nH]c5ccccc5[n+]41)([c]1ccccc1-c1[nH]c4ccccc4[n+]13)[n+]1c-2ccc2ccccc21 [3a]	49 ± 4	58 ± 7	> 65.8 and > 66	> 250	> 357.1 and > 357	> 250	> 250	> 143	0.7 ± 0.06	> 250	> 100	> 94	1.07 ± 0.07	> 100	> 12	8.6 ± 0.7	> 100	> 6	18 ± 3	> 100	PI (phototherapeutic index), blue light (A2780cis cells; A2780cis): > 52.6; IC50 (A2780cis cells; [1]): 1.9 µM; IC50 (A2780cis cells; [6]): 3.8 ± 0.3 µM
CCCCn1c2[n+](c3cc(C(=O)NCCCNC(=O)C[n+]4ccc(/C(C#N)=C5/C=C(C)c6ccccc6O5)cc4)ccc31)[Ir-3]13([c]4ccccc4-c4[nH]c5ccccc5[n+]41)([c]1ccccc1-c1[nH]c4ccccc4[n+]13)[n+]1c-2ccc2ccccc21 [3b]	45 ± 6	63 ± 5	> 8.1	> 250	> 4.1	> 250	> 250	> 1.6	61 ± 8	> 250	> 100	> 14	7.1 ± 0.1	> 100	> 6	18 ± 2	> 100	> 1.3	78 ± 6	> 100	PI (phototherapeutic index), blue light (A2780cis cells; A2780cis): > 41.7; IC50 (A2780cis cells; [1]): 2.4 µM; IC50 (A2780cis cells; A2780cis, hypoxia 2% O2, 1 h incubation + 1 h green light 520 nm, 48 h drug-free, read-out: Hypoxia 520 nm IC50): 31 µM
CCCCn1c2[n+](c3cc(C(=O)NCCCNC(=O)C[n+]4ccc(/C(C#N)=C5/C=C(C)c6cc7c8c(c6O5)CCCN8CCC7)cc4)ccc31)[Ir-3]13([c]4ccccc4-c4[nH]c5ccccc5[n+]41)([c]1ccccc1-c1[nH]c4ccccc4[n+]13)[n+]1c-2ccc2ccccc21 [3c]	61 ± 8	74 ± 10	> 31.3 and > 31	> 250	> 240.4 and > 240	> 250	> 250	> 96	1.04 ± 0.02	> 250	> 100	> 48	2.1 ± 0.2	> 100	> 2.2	45 ± 4	> 100	> 3	38 ± 5	> 100	IC50 (A2780cis cells; [6]): 8 ± 1 µM
CCCCn1c2[n+](c3cc(C(=O)NCCCCCC(=O)NCCCNC(=O)C[n+]4ccc(/C(C#N)=C5/C=C(C)c6ccc(N(CC)CC)cc6O5)cc4)ccc31)[Ir-3]13([c]4ccccc4-c4[nH]c5ccccc5[n+]41)([c]1ccccc1-c1[nH]c4ccccc4[n+]13)[n+]1c-2ccc2ccccc21 [3d]	27 ± 4	21 ± 1	> 131.6 and > 131	> 250	> 227.3 and > 227	> 250	> 250	> 91	1.1 ± 0.2	> 250	> 100	> 56	1.78 ± 0.07	> 100	> 50	2 ± 0.4	> 100	> 2.2	46 ± 4	> 100	IC50 (A2780cis cells; [6]): 1.9 ± 0.2 µM
